{
  "source": "patent US9573970B2",
  "about": "“4-{4-[(1E)-4-(2,9-diazaspiro[5.5]undec-2-yl)but-1-en-1-yl]-2-methylbenzyl}-5-(propan-2-yl)-1H-pyrazol-3-yl beta-D glucopyranoside acetate” (Eli Lilly and Company, priority 2013, dated 2017)",
  "system": "male rats with STZ-induced diabetes",
  "experiment": "Mixed meal tolerance test (MTT) in male rats with streptozotocin induced diabetes",
  "assay_type": "in vivo, rat",
  "conditions": "60 mg/kg oral, mean ± SE",
  "protocol": "The test compound is formulated by adding a vehicle of 1% hydroxyethylcellulose (HEC), 0.25% Tween® 80 w/antifoam 0.05% to preweighed test compound to make a 2.5 mg/ml solution. The mixture is probe sonicated for approximately 30 seconds. The resulting solution is used as a stock solution, from which the lower concentration dose solutions are prepared by dilution with the vehicle. STZ, 45 mg/kg, is formulated by dissolving in 0.1M Citrate buffer in 3 ml aliquots and stored in the dark on ice, when not being administered. A high fat content mixed meal (Bio-Serv® Rodent Diet F3282 High Fat) comprising Fat Calories (60%), Carbohydrate Calories (26%) and Protein Calories (15%) is utilized. Single housed Sprague Dawley rats are allowed to acclimate for a period of 3 to 7 days.\nIn an effort to ensure that the animals have not recently fed, STZ is administered in the afternoon, approximately six hours into the light cycle (lights on 6 am, lights off 6 pm). The animals are anesthetized with isoflurane and STZ is delivered via tail vein injection. Once animals regain consciousness, they are returned to housing and allowed to recover for 7 days.\nOn the two days immediately prior to the meal tolerance test (MTT) all rats are given a small amount (2-4 g) of the F3282 diet, so they became acclimated to it prior to receiving it during the experiment. On the evening before the experiment, the rats are moved into clean cages and their food is removed. The following morning animals are weighed and a blood sample is taken by tail snip for glucose measurement (Abbott AlphaTRAK™ glucometers: code 29) Animals are grouped n=6 based on fasted body weight and glucose. Thirty minutes after the test compound is orally administered, two glucose measurements are collected. Then a five gram pellet of Bio-Serv® diet 3282 is given. After 20 minutes remaining food is taken away and weighed. Blood samples are taken at 20, 40, 60 and 120 minutes for glucose measurement.",
  "data": [
    {"smiles": "C[C@H]1O[C@H](O[C@H]2[C@H](O)[C@@H](O)[C@@H](O[C@H]3[C@H](O)[C@@H](O)C(O)O[C@@H]3CO)O[C@@H]2CO)[C@H](O)[C@@H](O)[C@@H]1N[C@H]1C=C(CO)[C@@H](O)[C@H](O)[C@H]1O", "note": "(stereo partly drawn) [Acarbose, reference compound]", "values": [
      {"measurement": "Glucose value, 0 min.", "setting": "30 min after compound, before meal", "result": "124 ± 16.9", "unit": "mg/dL"},
      {"measurement": "Baseline Adjusted AUC (glucose)", "setting": "MTT", "result": "23877 ± 4649"},
      {"measurement": "Glucose value, 20 min.", "result": "181 ± 22.8", "unit": "mg/dL"},
      {"measurement": "Glucose value, 40 min.", "result": "301.3 ± 51.2", "unit": "mg/dL"},
      {"measurement": "Glucose value, 60 min.", "result": "371.5 ± 63.9", "unit": "mg/dL"},
      {"measurement": "Glucose value, 120 min.", "result": "433.7 ± 83", "unit": "mg/dL"}
    ]}
  ]
}
